Assay results from ChEMBL document CHEMBL5625199, “Discovery of triazole-bridged aryl adamantane analogs as an intriguing class of multifunctional agents for treatment of Alzheimer's disease” (Eur J Med Chem, 2023).
Activity calls are given as the source filed them. The calls are words filed in the database; no cut-off is given here.

Assays:
[1] = target: Acetylcholinesterase (Electrophorus electricus, UniProt O42275); test: Inhibition of electric eel AChE using acetylthiocholine iodide as substrate preincubated with enzyme for 10 mins followed by substrate addition and measured every 1 min for 20 mins by spectrophotometric analysis
[2] = target: Cholinesterase (Equus caballus, UniProt P81908); test: Inhibition of equine serum BuChE using butyrylthiocholine iodide as substrate preincubated with enzyme for 10 mins followed by substrate addition and measured every 1 min for 20 mins by spectrophotometric analysis
[3] = Selectivity index, ratio of IC50 for equine serum BuChE to IC50 for electric eel AChE
[4] = target: T1, Acetylcholinesterase (Homo sapiens, UniProt P22303); test: Inhibition of human AChE
[5] = Antagonist activity at GluN1-1a/GluN2B (unknown origin) expressed in xenopus laevis oocytes assessed as inhibition of glycine/glutamate-induced channel current incubated for 20s measured at holding potential of -70 mV by two-electrode voltage clamp technique; assay type: cell-based, Homo sapiens; conditions: Oocyte
[6] = Antagonist activity at GluN1-1a/GluN2A (unknown origin) expressed in xenopus laevis oocytes assessed as inhibition of glycine/glutamate-induced channel current incubated for 20s measured at holding potential of -70 mV by two-electrode voltage clamp technique; assay type: cell-based; conditions: Homo sapiens, Oocyte
[7] = Antagonist activity at GluN1-1b/GluN2A (unknown origin) expressed in xenopus laevis oocytes assessed as inhibition of glycine/glutamate-induced channel current incubated for 20s measured at holding potential of -70 mV by two-electrode voltage clamp technique; assay type: cell-based; conditions: Homo sapiens, Oocyte
[8] = Antagonist activity at GluN1-1b/GluN2B (unknown origin) expressed in xenopus laevis oocytes assessed as inhibition of glycine/glutamate-induced channel current incubated for 20s measured at holding potential of -70 mV by two-electrode voltage clamp technique; assay type: cell-based; conditions: Homo sapiens, Oocyte
[9] = Antagonist activity at GluN1-1a/GluN2C (unknown origin) expressed in xenopus laevis oocytes assessed as inhibition of glycine/glutamate-induced channel current incubated for 20s measured at holding potential of -70 mV by two-electrode voltage clamp technique; assay type: cell-based; conditions: Homo sapiens, Oocyte
[10] = Antagonist activity at GluN1-1b/GluN2C (unknown origin) expressed in xenopus laevis oocytes assessed as inhibition of glycine/glutamate-induced channel current incubated for 20s measured at holding potential of -70 mV by two-electrode voltage clamp technique; assay type: cell-based; conditions: Homo sapiens, Oocyte
[11] = Antagonist activity at GluN1-1a/GluN2D (unknown origin) expressed in xenopus laevis oocytes assessed as inhibition of glycine/glutamate-induced channel current incubated for 20s measured at holding potential of -70 mV by two-electrode voltage clamp technique; assay type: cell-based; conditions: Homo sapiens, Oocyte
[12] = Antagonist activity at GluN1-1b/GluN2D (unknown origin) expressed in xenopus laevis oocytes assessed as inhibition of glycine/glutamate-induced channel current incubated for 20s measured at holding potential of -70 mV by two-electrode voltage clamp technique; assay type: cell-based; conditions: Homo sapiens, Oocyte
[13] = target: Amyloid-beta precursor protein (Homo sapiens) (UniProt P05067); test: Inhibition of self-induced Amyloid beta (1 to 42 residues) (unknown origin) aggregation at Abeta(1 to 42) to compound concentration ratio of 10:5 to 10:20 uM incubated for 48 hrs by ThT fluorescence method
[14] = target: Amyloid-beta precursor protein (Homo sapiens) (UniProt P05067); test: Inhibition of AChE-induced Amyloid beta (1 to 42 residues) (unknown origin) aggregation at Abeta(1 to 42) to compound concentration ratio of 10:5 to 10:20 uM incubated for 48 hrs by ThT fluorescence method
[15] = system: SH-SY5Y; test: Neuroprotective activity against human SH-SY5Y cells assessed as reduction of Abeta(1 to 42)-induced cytotoxicity upto 10 uM pretreated with Abeta42 for 24 hrs followed by incubation with compound for 72 hrs by MTT assay; assay type: functional, cell-based
[16] = system: HEK-293T; test: Cytotoxicity against HEK293T cells assessed as reduction in cell viability at 0.3 to 30 uM measured after 44 hrs by WST-1 assay; assay type: toxicity, cell-based; conditions: human, dose 0.3-30 µM
[17] = system: HEK-293T; test: Cytotoxicity against HEK293T cells assessed as reduction in cell viability at 100 uM measured after 44 hrs by WST-1 assay; assay type: toxicity, cell-based; conditions: human
[18] = system: Rattus norvegicus; test: (§1) Antialzheimer activity against scopalamine-induced amnesia Wistar rat model assessed as inhibition of cognition impairment by measuring increase in spontaneous alterations at 2.5 to 10 mg/kg, po administered for 7 days and on day 7 administered with scopolamine at 30 mins before drug administration by Y-maze test; assay type: functional, organism-based; conditions: dose 2.5-10 mg/kg, time 7.0 day
[19] = system: Rattus norvegicus; test: as §1, with “at” for “at 2.5 to”; assay type: functional, organism-based; conditions: time 7.0 day
[20] = target: T2, Acetylcholinesterase (Rattus norvegicus) (UniProt P37136); test: Ex vivo inhibition of AChE activity in brain of scopalamine-induced amnesia Wistar rat model at 2.5 to 10 mg/kg, po administered for 7 days and on day 7 administered with scopolamine at 30 mins before drug administration; assay type: functional, organism-based; conditions: dose 2.5-10 mg/kg, time 7.0 day
T2 sequence (whole entry): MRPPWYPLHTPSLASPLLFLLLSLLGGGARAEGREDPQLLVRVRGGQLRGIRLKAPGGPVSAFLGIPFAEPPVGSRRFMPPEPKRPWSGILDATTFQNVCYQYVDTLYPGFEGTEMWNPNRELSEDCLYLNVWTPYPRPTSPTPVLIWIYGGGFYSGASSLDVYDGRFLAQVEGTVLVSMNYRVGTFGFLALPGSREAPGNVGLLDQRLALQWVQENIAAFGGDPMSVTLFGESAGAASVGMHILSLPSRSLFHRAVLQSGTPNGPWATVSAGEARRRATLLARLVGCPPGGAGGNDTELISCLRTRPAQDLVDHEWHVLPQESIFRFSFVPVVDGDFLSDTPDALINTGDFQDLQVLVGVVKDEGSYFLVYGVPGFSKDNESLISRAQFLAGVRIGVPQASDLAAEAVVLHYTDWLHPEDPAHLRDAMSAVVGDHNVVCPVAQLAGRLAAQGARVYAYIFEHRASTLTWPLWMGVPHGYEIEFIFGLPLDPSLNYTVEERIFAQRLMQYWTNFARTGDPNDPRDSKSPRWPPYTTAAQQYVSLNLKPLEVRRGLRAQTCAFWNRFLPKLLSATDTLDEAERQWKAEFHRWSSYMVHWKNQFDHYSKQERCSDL

[21] = target: T2, Acetylcholinesterase (Rattus norvegicus); test: Ex vivo inhibition of AChE activity in brain of scopalamine-induced amnesia Wistar rat model at 10 mg/kg, po administered for 7 days and on day 7 administered with scopolamine at 30 mins before drug administration; assay type: functional, organism-based; conditions: time 7.0 day
[22] = system: Rattus norvegicus; test: Antialzheimer activity against Abeta(1 to 42)-induced coginitive deficit Wistar rat model assessed as increase in time spent in the platform zone at 10 mg/kg, po administered for 7 days by Morris water maze test; assay type: functional, organism-based; conditions: time 7.0 day
[23] = system: Rattus norvegicus; test: Antialzheimer activity against Abeta(1 to 42)-induced coginitive deficit Wistar rat model assessed as increase in total number of platform crossings at 10 mg/kg, po administered for 7 days by Morris water maze test; assay type: functional, organism-based; conditions: time 7.0 day
[24] = in vitro; conditions: PAMPA
Description: Permeability of the compound at 25 ug/ml incubated or 18 hrs by PAMPA-BBB assay

[25] = organism: Homo sapiens; test: Antagonist activity at NMDA receptor (unknown origin) relative to control; conditions: filed as antagonist, concentration not given here
[26] = system: Rattus norvegicus; test: as §1, with “5” for “2.5 to 10”; assay type: functional, organism-based; conditions: time 7.0 day
[27] = system: Rattus norvegicus; test: Antialzheimer activity against Abeta(1 to 42)-induced coginitive deficit Wistar rat model assessed as increase in time spent in the platform zone at 5 mg/kg, po administered for 7 days by Morris water maze test; assay type: functional, organism-based; conditions: time 7.0 day
[28] = system: Rattus norvegicus; test: Antialzheimer activity against Abeta(1 to 42)-induced coginitive deficit Wistar rat model assessed as increase in total number of platform crossings at 5 mg/kg, po administered for 7 days by Morris water maze test; assay type: functional, organism-based; conditions: time 7.0 day
[29] = target: T1, Acetylcholinesterase; test: Inhibition of AChE (unknown origin)
[30] = target: Glutamate receptor ionotropic, NMDA 2A (Homo sapiens, UniProt Q05586+Q12879); test: Antagonist activity at GluN2A NMDA receptor (unknown origin)
Chain of Glutamate receptor ionotropic, NMDA 2A (Q12879 whole entry, one chain of several): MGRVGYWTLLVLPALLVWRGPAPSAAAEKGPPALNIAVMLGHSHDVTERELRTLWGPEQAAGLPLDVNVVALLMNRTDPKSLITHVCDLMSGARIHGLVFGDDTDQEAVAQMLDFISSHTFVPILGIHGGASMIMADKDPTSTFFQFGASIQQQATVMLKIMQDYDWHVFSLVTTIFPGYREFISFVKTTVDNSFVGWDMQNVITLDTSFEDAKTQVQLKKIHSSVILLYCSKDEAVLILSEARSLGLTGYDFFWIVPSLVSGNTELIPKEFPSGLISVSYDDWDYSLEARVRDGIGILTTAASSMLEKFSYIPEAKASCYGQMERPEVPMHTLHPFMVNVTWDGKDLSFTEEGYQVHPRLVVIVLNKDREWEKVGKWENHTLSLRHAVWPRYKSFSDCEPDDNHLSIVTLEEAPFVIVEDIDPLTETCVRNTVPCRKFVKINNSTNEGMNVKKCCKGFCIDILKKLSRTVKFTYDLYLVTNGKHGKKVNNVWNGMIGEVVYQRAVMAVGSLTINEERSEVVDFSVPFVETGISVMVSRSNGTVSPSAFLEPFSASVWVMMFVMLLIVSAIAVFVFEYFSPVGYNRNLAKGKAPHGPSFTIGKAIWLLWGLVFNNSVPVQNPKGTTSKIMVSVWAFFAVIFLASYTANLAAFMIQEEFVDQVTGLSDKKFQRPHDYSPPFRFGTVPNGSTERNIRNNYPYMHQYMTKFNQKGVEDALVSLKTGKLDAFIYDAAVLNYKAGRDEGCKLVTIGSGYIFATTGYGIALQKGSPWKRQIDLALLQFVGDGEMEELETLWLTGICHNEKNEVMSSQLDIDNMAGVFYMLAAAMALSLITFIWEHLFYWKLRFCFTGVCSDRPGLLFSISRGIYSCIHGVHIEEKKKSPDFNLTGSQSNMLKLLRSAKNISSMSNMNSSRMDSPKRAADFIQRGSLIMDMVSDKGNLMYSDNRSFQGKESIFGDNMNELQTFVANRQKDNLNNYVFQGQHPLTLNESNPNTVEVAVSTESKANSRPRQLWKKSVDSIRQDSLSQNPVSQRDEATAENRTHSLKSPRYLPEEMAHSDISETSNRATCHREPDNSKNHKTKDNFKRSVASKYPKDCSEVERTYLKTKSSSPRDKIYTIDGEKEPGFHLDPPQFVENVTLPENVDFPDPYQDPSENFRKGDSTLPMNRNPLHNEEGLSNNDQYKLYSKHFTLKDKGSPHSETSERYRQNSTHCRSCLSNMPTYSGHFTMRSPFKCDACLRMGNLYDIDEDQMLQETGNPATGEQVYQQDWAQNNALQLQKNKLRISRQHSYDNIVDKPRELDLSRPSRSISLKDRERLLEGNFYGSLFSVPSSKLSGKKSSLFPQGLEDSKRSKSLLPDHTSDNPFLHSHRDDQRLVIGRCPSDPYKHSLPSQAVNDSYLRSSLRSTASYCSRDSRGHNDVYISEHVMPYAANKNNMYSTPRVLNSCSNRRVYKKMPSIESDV

Chain of Acetylcholinesterase (Electrophorus electricus, UniProt O42275) (O42275 whole entry): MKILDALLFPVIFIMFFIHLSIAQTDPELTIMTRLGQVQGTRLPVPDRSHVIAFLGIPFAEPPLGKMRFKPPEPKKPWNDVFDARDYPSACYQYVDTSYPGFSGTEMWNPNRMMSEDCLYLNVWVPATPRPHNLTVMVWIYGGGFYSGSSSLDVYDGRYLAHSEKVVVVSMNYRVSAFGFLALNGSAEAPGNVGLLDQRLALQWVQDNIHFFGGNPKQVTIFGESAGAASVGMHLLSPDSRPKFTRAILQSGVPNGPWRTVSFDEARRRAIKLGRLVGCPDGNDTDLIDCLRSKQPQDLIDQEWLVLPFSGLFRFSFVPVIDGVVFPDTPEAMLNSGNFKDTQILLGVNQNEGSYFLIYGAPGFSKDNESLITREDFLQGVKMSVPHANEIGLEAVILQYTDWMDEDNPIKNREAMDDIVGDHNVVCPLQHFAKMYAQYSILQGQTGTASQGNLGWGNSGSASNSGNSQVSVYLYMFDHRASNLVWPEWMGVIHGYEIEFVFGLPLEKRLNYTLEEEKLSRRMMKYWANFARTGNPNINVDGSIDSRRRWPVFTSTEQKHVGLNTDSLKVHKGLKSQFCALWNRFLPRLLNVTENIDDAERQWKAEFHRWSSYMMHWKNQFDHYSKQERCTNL
T1 sequence (P22303 whole entry): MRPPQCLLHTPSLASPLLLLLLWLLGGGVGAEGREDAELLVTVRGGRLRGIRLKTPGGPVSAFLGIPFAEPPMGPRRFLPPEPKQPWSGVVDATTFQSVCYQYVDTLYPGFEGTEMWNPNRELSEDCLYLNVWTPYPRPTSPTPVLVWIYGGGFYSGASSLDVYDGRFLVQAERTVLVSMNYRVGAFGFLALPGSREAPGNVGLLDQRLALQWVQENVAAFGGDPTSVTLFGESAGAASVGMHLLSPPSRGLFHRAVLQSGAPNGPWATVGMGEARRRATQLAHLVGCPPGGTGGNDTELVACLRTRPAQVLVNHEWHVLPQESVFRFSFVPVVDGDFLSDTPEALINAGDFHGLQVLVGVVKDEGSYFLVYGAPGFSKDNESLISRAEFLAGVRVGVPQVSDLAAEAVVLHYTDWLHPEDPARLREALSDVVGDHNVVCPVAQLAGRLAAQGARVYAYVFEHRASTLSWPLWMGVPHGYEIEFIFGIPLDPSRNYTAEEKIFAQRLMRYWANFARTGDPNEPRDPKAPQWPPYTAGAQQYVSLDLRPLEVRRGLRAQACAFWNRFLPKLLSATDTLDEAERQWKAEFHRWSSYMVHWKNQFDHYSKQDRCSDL
Chain of Cholinesterase (P81908 whole entry): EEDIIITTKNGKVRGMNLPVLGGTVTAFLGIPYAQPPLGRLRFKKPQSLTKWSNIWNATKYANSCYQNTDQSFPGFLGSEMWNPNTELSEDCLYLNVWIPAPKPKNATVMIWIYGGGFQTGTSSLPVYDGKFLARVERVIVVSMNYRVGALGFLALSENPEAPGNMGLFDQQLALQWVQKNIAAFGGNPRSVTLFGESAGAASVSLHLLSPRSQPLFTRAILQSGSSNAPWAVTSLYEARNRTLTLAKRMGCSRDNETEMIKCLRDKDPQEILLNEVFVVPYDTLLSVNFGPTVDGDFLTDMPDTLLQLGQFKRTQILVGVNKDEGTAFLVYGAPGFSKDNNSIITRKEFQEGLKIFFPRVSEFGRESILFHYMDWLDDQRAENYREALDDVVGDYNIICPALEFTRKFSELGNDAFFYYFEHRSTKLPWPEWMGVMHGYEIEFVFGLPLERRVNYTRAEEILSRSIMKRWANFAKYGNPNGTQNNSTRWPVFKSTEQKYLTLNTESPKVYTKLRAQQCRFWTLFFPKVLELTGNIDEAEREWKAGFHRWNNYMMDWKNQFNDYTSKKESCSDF
Chain of Amyloid-beta precursor protein (Homo sapiens) (P05067 whole entry, the tested form may be a part): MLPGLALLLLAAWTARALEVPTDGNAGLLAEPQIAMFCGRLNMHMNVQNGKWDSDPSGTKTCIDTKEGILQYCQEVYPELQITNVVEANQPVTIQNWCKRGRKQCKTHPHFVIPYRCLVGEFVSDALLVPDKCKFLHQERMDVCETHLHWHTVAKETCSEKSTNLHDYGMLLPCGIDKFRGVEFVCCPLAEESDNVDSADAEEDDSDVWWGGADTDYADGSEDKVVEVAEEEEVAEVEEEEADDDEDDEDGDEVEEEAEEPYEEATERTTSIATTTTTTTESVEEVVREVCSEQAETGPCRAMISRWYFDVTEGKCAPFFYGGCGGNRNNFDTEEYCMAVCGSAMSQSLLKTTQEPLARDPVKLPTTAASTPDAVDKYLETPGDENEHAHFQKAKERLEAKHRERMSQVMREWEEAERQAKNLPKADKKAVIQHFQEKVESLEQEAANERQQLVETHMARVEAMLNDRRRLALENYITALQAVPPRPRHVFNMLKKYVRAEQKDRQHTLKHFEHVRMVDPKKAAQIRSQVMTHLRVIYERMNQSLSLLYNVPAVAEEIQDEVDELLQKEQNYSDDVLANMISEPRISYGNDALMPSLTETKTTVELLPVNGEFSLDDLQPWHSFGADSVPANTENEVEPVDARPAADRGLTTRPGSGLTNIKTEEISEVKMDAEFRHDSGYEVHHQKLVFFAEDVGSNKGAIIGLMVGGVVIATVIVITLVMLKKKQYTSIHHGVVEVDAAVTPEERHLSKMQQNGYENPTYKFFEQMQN

Structure (SMILES) | IC50 [1] [µM] | IC50 [2] [µM] | Ratio IC50 [3] | IC50 [5] [µM] | Papp at 18 h, 25 ug/ml [24] [×10⁻⁶ cm/s] | further results
Clc1ccc(Cn2cc(CNC34CC5CC(CC(C5)C3)C4)nn2)cc1 | 0.135 | 3.8 | 28.1 | 5.05 | 8.24 | IC50 [4]: 0.133 µM; IC50 [6]: 129 µM; IC50 [7]: 142 µM; IC50 [8]: 2.86 µM; IC50 [9]: 143 µM; IC50 [10]: 52.8 µM; IC50 [11]: 789 µM; IC50 [12]: 239 µM; inhibition [13]: Dose-Dependent Effect; inhibition [14]: Dose-Dependent Effect; Activity [15]: Active; Activity [16]: Non-Toxic; Activity [17]: Toxic; Activity [18]: Dose-Dependent Effect; Activity [19]: Active; inhibition [20]: Dose-Dependent Effect; inhibition [21]: Active; Activity [22]: Active; Activity [23]: Active
c1ccc(CCNC23CC4CC(CC(C4)C2)C3)cc1 |  |  |  |  |  | inhibition [25]: 89.5%
Fc1ccc(Cn2cc(CNC34CC5CC(CC(C5)C3)C4)nn2)cc1 | 0.194 | 3.27 | 16.9 |  | 7.75 | 
Clc1ccc(Cn2cc(CNC3CCCCCC3)nn2)cc1 | 0.607 | 16.5 | 27.1 |  | 6.84 | IC50 [4]: 0.927 µM
c1ccc(Cn2cc(CNC34CC5CC(CC(C5)C3)C4)nn2)cc1 | 0.36 | 4.72 | 13.1 |  | 6.95 | 
CC(C)c1ccc(Cn2cc(CNC3CCCCCC3)nn2)cc1 | 1.52 | 15.7 | 10.3 | 217 | 7.24 | 
COc1cc2c(cc1OC)C(=O)C(CC1CCN(Cc3ccccc3)CC1)C2 (configuration not stated) |  |  |  |  |  | Activity [26]: Active; Activity [27]: Active; Activity [28]: Active
COc1ccc2c(c1)c(=O)c1ccccc1n2Cc1cn(Cc2ccc(Cl)cc2)nn1 |  |  |  |  |  | IC50 [29]: 7.31 µM
c1ccc(Cn2cc(CNC3CCCCCC3)nn2)cc1 | 1.41 | 11.4 | 8.02 |  | 7.2 | 
Fc1ccc(Cn2cc(CNC3CCCCCC3)nn2)cc1 | 1.82 | 10.5 | 5.75 | 97.3 | 8.42 | 
O=[N+]([O-])c1ccc(Cn2cc(CNC3CCCCCC3)nn2)cc1 | 4.64 | 19.2 | 4.14 | 116 | 6.31 | 
CC(C(O)c1ccc(O)cc1)N1CCC(Cc2ccccc2)CC1 (configuration not stated) [IFENPRODIL] |  |  |  |  |  | IC50 [30]: 146 µM
